Experimental data: patent US6500959B1, “Pyrrolidine derivatives and processes for preparing same” (GPI NIL Holdings, Inc., priority 1995, dated 2002)
“Also recorded” adds a separate entry of the source. Like-named read-outs stand apart in the source and are kept apart here.

How the values were obtained:
FKBP = FKBP (Homo sapiens, UniProt P62942); experiment: Ki test procedure: inhibition of peptidyl-prolyl isomerase (rotamase) activity, chymotrypsin-coupled assay; assay type: biochemical; conditions: apparent Ki
Protocol: The inhibition of this reaction caused by the addition of different concentrations of inhibitor is determined, and the data is analyzed as a change in first-order rate constant as a function of inhibitor concentration to yield the apparent Ki values.
In a plastic cuvette are added […] of ice cold assay buffer (25 mM HEPES, pH 7.8, 100 mM NaCl), […] of FKBP (2.5 mM in 10 mM Tris-Cl pH 7.5, 100 mM NaCl, 1 mM dithiothreitol), […] of chymotrypsin (50 mg/ml in 1 mM HCl) and […] of test compound at various concentrations in dimethyl sulfoxide.

[1] = test system: chick dorsal root ganglia; experiment: Chick dorsal root ganglion cultures and neurite outgrowth; assay type: cell-based; conditions: read-out: ED50, neurite outgrowth
Description: (§1) Forty-eight hours later, the number of neurite with a length greater than one DRG explant was quantitated. The number of neurites expressed in untreated DRG's was subtracted from the neurite number of Example 17—treated samples to yield Example 17—dependent specific neurite outgrowth.
as §1, with “form” for “from”, “outgrowth. Quantitative dose-dependent neurite outgrowth elicited by Example 17 is presented.” for “outgrowth.”
Dorsal root ganglia were dissected from chick embryos of ten day gestation. Whole ganglion explants were cultured on thin layer Matrigel-coated 12 well plates with Liebovitz L15 plus high glucose media supplemented with 2 mM glutamine and 10% fetal calf serum, and also containing 10 μM cytosine β-D arabinofuranoside (Ara C) at 37° C. in an environment containing 5% CO2. Twenty-four hours later, the DRGs were treated with various concentrations of nerve growth factor, immunophilin ligands or combinations of NFG plus drugs. Forty-eight hours after drug treatment, the ganglia were visualized under phase contrast or Hoffman Modulation contrast with a Zeiss Axiovert inverted microscope. Photomicrographs of the explants were made, and neurite outgrowth was quantitated. Neurites longer than the DRG diameter were counted as positive, with total number of neurites quantitated per each experimental condition. Three to four DRGs are cultured per well, and each treatment was performed in duplicate.

sciatic nerve = experiment: Sciatic nerve axotomy (crush), axon number and myelination; assay type: in vivo, Sprague-Dawley rats
Description: FIGS. 3A-3D are photomicrographs of rat […] sections. […] Sciatic nerves of 150 g male Sprague-Dawley rats were crushed at the level of the hips. […] Animals were sacrificed, sciatic nerves removed and nerve segments 2 mm distal to the crush site were sectioned and stained with Holmes silver stain (to assess axon number) and Luxol fast blue (to assess remyelination). The micrographs show sciatic nerve sections of sham operated rats, vehicle-treated lesioned animals. […] Six-week old male Sprague-Dawley rats were anesthetized, and the sciatic nerve exposed and crushed, at the level of the hip, by forceps. Test compounds or vehicle were administered subcutaneously just prior to the lesion and daily for the following 18 days. Sections of the sciatic nerve were stained with Holmes silver stain to quantify the number of axons, and Luxol fast blue to quantify the level of myelination. […] “Sham” denotes control animals that received vehicle but were not lesioned; “Vehicle” denotes animals that were lesioned and received only vehicle (i.e., no drug).

[2] = chick DRG explants, 48 h after drug treatment
[3] = 30 mg/kg s.c., just prior to lesion and daily for 18 days

Chain of FKBP (P62942 whole entry): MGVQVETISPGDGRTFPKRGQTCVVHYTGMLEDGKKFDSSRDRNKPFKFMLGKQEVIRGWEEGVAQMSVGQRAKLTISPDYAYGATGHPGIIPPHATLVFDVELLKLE

SMILES | Ki (FKBP) | EC50 ([1]; Gallus gallus, 48 h) | further results
CCC(C)(C)C(=O)C(=O)N1CCC[C@H]1C(=O)OC/C=C/c1cc(OC)c(OC)c(OC)c1 [Example 4, 3-(3,4,5-trimethoxyphenyl)-1-prop-2-(E)-enyl (2S)-1-(3,3-dimethyl-1,2-dioxopentyl)-2-pyrrolidine carboxylate] | 65 nM | 190 nM | 
CCC(C)(C)C(=O)C(=O)N1CCC[C@H]1C(=O)OC/C=C/c1cc(OC)ccc1OC [Example 15, 3-(2,5-dimethoxyphenyl)-1-prop-2-(E)-enyl (2S)-1-(3,3-dimethyl-1,2-dioxopentyl)-2-pyrrolidine-carboxylate] | 450 nM | 0.8 nM | 
O=C(C(=O)N1CCC[C@H]1C(=O)OCCC(c1ccccc1)c1ccccc1)C1CCCCC1 [Example 29, 3,3-Diphenyl-1-propyl (2S)-1-cyclohexyl glyoxyl-2-pyrrolidinecarboxylate] | 20 nM | 10 nM | 
CCC(C)(C)C(=O)C(=O)N1CCC[C@H]1C(=O)OCCCc1ccc2c(c1)OCO2 [Example 5] | 170 nM |  | EC50 [1, 2]: 10 nM
CCC(C)(C)C(=O)C(=O)N1CCC[C@H]1C(=O)OC/C=C/C1CCCCC1 [Example 8, 3-cyclohexyl-1-prop-2-(E)-enyl (2S)-1-(3,3-dimethyl-1,2-dioxopentyl)-2-pyrrolidinecarboxylate] | 600 nM |  | 
CCC(C)(C)C(=O)C(=O)N1CCC[C@H]1C(=O)OCCCc1ccncc1 [Example 19, 3-(4-Pyridyl)-1-propyl (2S)-1-(3,3-dimethyl-1,2-dioxopentyl)-2-pyrrolidinecarboxylate] |  | 6 nM | 
O=C(C(=O)N1CCC[C@H]1C(=O)OCCC(c1ccccc1)c1ccccc1)c1cccs1 [Example 30, 3,3-Diphenyl-1-propyl (2S)-1-(2-thienyl) glyoxyl-2-pyrrolidinecarboxylate] | 150 nM | 100 nM | 
O=C(C(=O)N1CCC[C@H]1C(=O)OC(CCc1ccccc1)c1ccccc1)C1CCCCC1 (stereo partly drawn) [Example 20, 3-phenyl-1-phenyl-1-propyl (2S)-1-(2-cyclohexyl-1,2-dioxoethyl)-2-pyrrolidinecarboxylate] | 82 nM |  | EC50 [1, 2]: 0.13 nM
CCC(C)(C)C(=O)C(=O)N1CCC[C@H]1C(=O)OCCc1cc(OC)c(OC)c(OC)c1 [Example 16, 2-(3,4,5-trimethoxyphenyl)-1-ethyl (2S)-1-(3,3-dimethyl-1,2-dioxopentyl)-2-pyrrolidine-carboxylate] |  | 0.015 nM | 
CCC(C)(C)C(=O)C(=O)N1CCC[C@H]1C(=O)OC/C=C/c1ccc2c(c1)OCO2 [Example 6, 3-(4,5-methylenedioxyphenyl)-1-prop-2-(E)-enyl (2S)-1-(3,3-dimethyl-1,2-dioxopentyl)-2-pyrrolidinecarboxylate] | 160 nM | 75 nM | 
O=C(CCC1CCCCC1)C(=O)N1CCC[C@H]1C(=O)OCCCc1ccccc1 [Example 22, 3-phenyl-1-propyl (2S)-1-(2-cyclohexyl-ethyl-1,2-dioxoethyl)-2-pyrrolidinecarboxylate] |  | 0.66 nM | 
O=C(C(=O)N1CCC[C@H]1C(=O)OCCCc1ccccc1)c1ccco1 [Example 10, 3-phenyl-1-propyl (2S)-1-(1,2-dioxo-2-[2-furanyl])ethyl-2-pyrrolidinecarboxylate] | 4000 nM | 0.46 nM | 
CCC(C)(C)C(=O)C(=O)N1CCC[C@H]1C(=O)OCCCc1cc(OC)c(OC)c(OC)c1 [Example 3, 3-(3,4,5-trimethoxyphenyl)-1-propyl (2S)-1-(3,3-dimethyl-1,2-dioxopentyl)-2-pyrrolidine-carboxylate] |  | 149 nM | 
CC(C)(C)C(=O)C(=O)N1CCC[C@H]1C(=O)OCCCc1ccccc1 [Example 21, 3-phenyl-1-propyl (2S)-1-(2-tert-butyl-1,2-dioxoethyl)-2-pyrrolidinecarboxylate] |  | 0.025 nM | 
CC(C)(C)C(=O)C(=O)N1CCC[C@H]1C(=O)OCCCc1cccnc1 [Example 24, 3-(3-pyridyl)-1-propyl (2S)-1-(2-tert-butyl-1,2-dioxoethyl)-2-pyrrolidinecarboxylate] |  | 0.014 nM | 
CC(C)(C)C(=O)C(=O)N1CCC[C@H]1C(=O)OCCC(c1ccccc1)c1ccccc1 [Example 28, 3,3-Diphenyl-1-propyl (2S)-1-(3,3-dimethyl-1,2-dioxobutyl)-2-pyrrolidinecarboxylate] |  | 0.5 nM | 
O=C(C(=O)N1CCC[C@H]1C(=O)OCCCc1cccnc1)c1cccs1 [Example 27, 3-(3-Pyridyl)-1-propyl (2S)-N-([2-thienyl]glyoxyl)pyrrolidinecarboxylate] | 1000 nM | 500 nM | 
O=C(C(=O)N1CCC[C@H]1C(=O)OCCCc1ccccc1)c1ccccc1 [Example 13, 3-phenyl-1-propyl (2S)-1-(1,2-dioxo-2-phenyl)ethyl-2-pyrrolidinecarboxylate] | 1970 nM |  | 
CCC(C)(C)C(=O)C(=O)N1CCC[C@H]1C(=O)OCCC(c1ccccc1)c1ccccc1 [Example 25, 3,3-diphenyl-1-propyl (2S)-1-(3,3-dimethyl-1,2-dioxopentyl)-2-pyrrolidinecarboxylate] |  | 0.5 nM | 
CCC(C)(C)C(=O)C(=O)N1CCC[C@H]1C(=O)OC/C=C/c1ccccc1 [Example 2, 3-phenyl-1-prop-2-(E)-enyl (2S)-1-(3,3-dimethyl-1,2-dioxopentyl)-2-pyrrolidinecarboxylate] | 125 nM | 105 nM | 
O=C(CCC1CCCCC1)C(=O)N1CCC[C@H]1C(=O)OCCCc1cccnc1 [Example 23, 3-(3-pyridyl)-1-propyl (2S)-1-(2-cyclohexylethyl-1,2-dioxoethyl)-2-pyrrolidinecarboxylate] |  | 1100 nM | 
CCC(C)(C)C(=O)C(=O)N1CCC[C@H]1C(=O)OCCCc1ccccn1 [Example 18, 3-(2-Pyridyl)-1-propyl (2S)-1-(3,3-dimethyl-1,2-dioxopentyl)-2-pyrrolidinecarboxylate] |  | 30 nM | 
CCC(C)(C)C(=O)C(=O)N1CCC[C@H]1C(=O)OCCCc1ccccc1 [Example 1, 3-phenyl-1-propyl (2S)-1-(3,3-dimethyl-1,2-dioxopentyl)-2-pyrrolidinecarboxylate] |  | 53 nM | axon number, decrease as compared to non-lesioned control (sciatic nerve; [3]): 5%; degree of myelination, decrease as compared to control (sciatic nerve; [3]): 50%; neuronal regeneration, appearance of sciatic nerve sections (sciatic nerve; 30 mg/kg s.c., compared with sham and vehicle-treated lesioned animals): striking similarity to the sham treated animals; also recorded: promotes neuronal regeneration following sciatic nerve lesions; Axon Number (% Control) (sciatic nerve; lesioned rats, 30 mg/kg s.c. daily, Holmes silver stain): 100 % Control; Myelin Level (sciatic nerve; lesioned rats, 30 mg/kg s.c. daily, Luxol fast blue, Sham = 100): 50
O=C(C(=O)N1CCC[C@H]1C(=O)OCCCc1ccccc1)c1cccs1 [Example 11, 3-phenyl-1-propyl (2S)-1-(1,2-dioxo-2-[2-thienyl])ethyl-2-pyrrolidinecarboxylate] | 92 nM | 0.015 nM | 
CCC(C)(C)C(=O)C(=O)N1CCC[C@H]1C(=O)OCCCc1cc(OC)ccc1OC [Example 14, 3-(2,5-dimethoxyphenyl)-1-propyl (2S)-1-(3,3-dimethyl-1,2-dioxopentyl)-2-pyrrolidine-carboxylate] |  | 2 nM | 
O=C(C(=O)N1CCC[C@H]1C(=O)OCCCc1cccnc1)C1CCCCC1 [Example 26, 3-(3-pyridyl)-1-propyl (2S)-1-(2-cyclohexyl-1,2-dioxoethyl)-2-pyrrolidinecarboxylate] |  | 2 nM | 
O=C(C(=O)N1CCC[C@H]1C(=O)OCCCc1ccccc1)c1nccs1 [Example 12, 3-phenyl-1-propyl (2S)-1-(1,2-dioxo-2-[2-thiazolyl])ethyl-2-pyrrolidinecarboxylate] | 100 nM |  | 
